Measurements published in patent US20250195504A1, “NALTREXAMINE DERIVATIVES BEARING 5-MEMBER HETEROCYCLIC RING SYSTEMS AND OPIOID RECEPTOR MODULATORS” (VIRGINIA COMMONWEALTH UNIVERSITY, priority 2022, published 2025).
Structures can show the parent of a compound that is named as a salt. Where two headings read alike, the source gives them in different places.

Legend:
hM4 = biological target: T1, hM4 (Homo sapiens, UniProt P08173); assay: side effect profiling, hM4; format: binding; conditions: for hM4 binding: at 10 uM
T1 sequence (P08173 1-479): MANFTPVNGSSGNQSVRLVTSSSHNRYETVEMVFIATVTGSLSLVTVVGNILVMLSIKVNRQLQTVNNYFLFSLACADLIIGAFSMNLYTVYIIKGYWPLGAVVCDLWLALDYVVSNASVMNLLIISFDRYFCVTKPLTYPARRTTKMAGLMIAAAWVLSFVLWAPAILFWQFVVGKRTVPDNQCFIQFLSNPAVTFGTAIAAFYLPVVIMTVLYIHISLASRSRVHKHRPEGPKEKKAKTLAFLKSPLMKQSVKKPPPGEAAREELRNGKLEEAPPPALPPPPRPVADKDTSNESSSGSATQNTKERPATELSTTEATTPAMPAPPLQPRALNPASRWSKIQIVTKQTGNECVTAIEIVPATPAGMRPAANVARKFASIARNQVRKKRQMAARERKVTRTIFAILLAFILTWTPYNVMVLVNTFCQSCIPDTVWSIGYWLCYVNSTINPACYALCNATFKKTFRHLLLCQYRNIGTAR

morphine-pelleted mice = assay: opioid withdrawal study in morphine-pelleted mice; conditions: for withdrawal symptoms (wet-dog shakes, escape jumps, paw tremors): 1 mg/kg s.c., compared to 1 mg/kg NLX; for withdrawal symptoms at higher doses: 5 mg/kg and above, s.c.; for Withdrawal study: wet-dog shakes, escape jumps, paw tremors: 1 mg/kg dose, compared to 1 mg/kg naloxone
solubility = conditions: Tables A, B
male Swiss Webster mice = assay: warm-water tail immersion (tail flick / tail-withdrawal) assay, antinociception; format: in vivo, mouse; conditions: mice
Method: In this assay, the duration for which mice kept their tails in the warm water was recorded.
All thirty-six compounds' antinociception were examined in tail immersion assay first to preclude any opioid receptor agonists.
Swiss Webster mice (six male mice for each group, 25-35 g, 6-8 weeks old) were used in this assay. Antinociception for all compounds was examined in male Swiss Webster mice. […] To prevent tissue damage, a 10 s maximum cutoff time was imposed. Antinociceptive response was calculated as the percentage of maximum possible effect (% MPE), where % MPE=[(test−control latency)/(10−control latency)]×100.
Warm-water tail immersion assay is a well-established assay for evaluating opioid analgesics, especially MOR agonists. […] In this context, all 24 compounds were first evaluated for their acute antinociception tail-withdrawal assay (FIG. 5A).
The tail-withdrawal test was performed using a water bath with the temperature maintained at 56±0.1° C. Baseline latency was measured before any injections. Each mouse was gently wrapped in a cloth with only the tail exposed. The distal one-third of the tail was immersed perpendicularly in water, and the mouse rapidly flicked the tail from the bath was seen as the first sign of discomfort. The duration of time the tail remained in the water bath was counted as the baseline latency. Untreated mice with baseline latency reaction times ranging from 2 to 4 seconds were used. Test latency was obtained 20 min later after each injection. A 10-second maximum cutoff latency was used to prevent any tissue damage. Antinociception was quantified as the percentage of maximal possible effect (% MPE), which was calculated as % MPE=[(test latency−control latency)/(10−control latency)]×100. The % MPE value was calculated for each mouse using 6 mice per group. Testing compounds were given 10 mg/kg (s.c.) to each mouse.

[1] = In vivo Bioavailability Foral; conditions: po
KOR = KOR (Mus musculus, UniProt P33534); assay: KOR [35S]GTPγS binding assay; format: biochemical; design: expressed in transfected cells; host or cells: CHO; conditions: for Emax: read-out: 35S-GTP[γS]-Binding KOR Efficacy (% max of U50, 488H)
Method: The [^35S]GTPγS functional assay was conducted to determine the efficacy of the compounds at the MOR, KOR and DOR. […] The Bradford protein assay was utilized to determine and adjust the concentration of protein required for the assay. Nonspecific binding was determined with 20 μM unlabeled GTPγS. Furthermore, 3 μM DAMGO/U50488H/SNC80 was included in the assay as the maximally effective concentration of a full agonist for the MOR/KOR/DOR. After incubation, the bound radioactive ligand was separated from the free radioligand by filtration through a GF/B glass fiber filter paper using a Brandel harvester. Bound radioactivity was determined by liquid scintillation counting. All assays were determined in duplicate and repeated at least three times. Net stimulated [^35S]GTPγS binding was defined as agonist-stimulated minus basal binding in the absence of agonist. Percent of DAMGO/U50488H/SNC80 stimulated [^35S]GTPγS binding was defined as (net-stimulated binding by ligand/net-stimulated binding by 3 μM DAMGO U50488H/SNC80)×100%.

CYP2C19 = CYP2C19 (Homo sapiens, UniProt P33261); assay: CYP450 enzyme testing, CYP2C19
[2] = Metabolic Stability (half-life), rat
[3] = Metabolic Stability (half-life), human
hM1 = biological target: T2, hM1 (Homo sapiens, UniProt P11229); assay: side effect profiling, hM1; format: binding; conditions: for hM1 binding: at 10 uM
T2 sequence (P11229 1-460): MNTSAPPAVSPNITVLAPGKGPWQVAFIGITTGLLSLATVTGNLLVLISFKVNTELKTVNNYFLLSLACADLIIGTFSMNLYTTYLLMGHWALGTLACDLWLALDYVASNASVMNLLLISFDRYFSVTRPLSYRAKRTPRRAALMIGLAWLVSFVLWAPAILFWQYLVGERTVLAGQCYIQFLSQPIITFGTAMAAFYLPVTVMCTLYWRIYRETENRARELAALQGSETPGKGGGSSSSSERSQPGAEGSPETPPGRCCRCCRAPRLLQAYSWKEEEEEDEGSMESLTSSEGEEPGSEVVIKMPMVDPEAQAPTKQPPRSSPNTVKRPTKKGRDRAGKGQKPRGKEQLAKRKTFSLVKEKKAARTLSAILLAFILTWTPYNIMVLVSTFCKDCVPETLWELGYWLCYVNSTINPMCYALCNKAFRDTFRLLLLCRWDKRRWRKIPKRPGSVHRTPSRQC

[4] = tested on: self-administration rat model; assay: Self-administration Studies, Food vs Drug (heroin choice); format: in vivo
[5] = tested on: Serotonin receptor, dopamine receptor, biogenic amine transporters; assay: side effect profiling panel binding; conditions: up to 10 μM, except the targets listed
Potassium channel hERG = Potassium channel hERG (Homo sapiens, UniProt Q12809); assay: side effect profiling, hERG channel; conditions: for hERG channel binding: at 10 uM
Chain of Potassium channel hERG (Q12809 whole entry): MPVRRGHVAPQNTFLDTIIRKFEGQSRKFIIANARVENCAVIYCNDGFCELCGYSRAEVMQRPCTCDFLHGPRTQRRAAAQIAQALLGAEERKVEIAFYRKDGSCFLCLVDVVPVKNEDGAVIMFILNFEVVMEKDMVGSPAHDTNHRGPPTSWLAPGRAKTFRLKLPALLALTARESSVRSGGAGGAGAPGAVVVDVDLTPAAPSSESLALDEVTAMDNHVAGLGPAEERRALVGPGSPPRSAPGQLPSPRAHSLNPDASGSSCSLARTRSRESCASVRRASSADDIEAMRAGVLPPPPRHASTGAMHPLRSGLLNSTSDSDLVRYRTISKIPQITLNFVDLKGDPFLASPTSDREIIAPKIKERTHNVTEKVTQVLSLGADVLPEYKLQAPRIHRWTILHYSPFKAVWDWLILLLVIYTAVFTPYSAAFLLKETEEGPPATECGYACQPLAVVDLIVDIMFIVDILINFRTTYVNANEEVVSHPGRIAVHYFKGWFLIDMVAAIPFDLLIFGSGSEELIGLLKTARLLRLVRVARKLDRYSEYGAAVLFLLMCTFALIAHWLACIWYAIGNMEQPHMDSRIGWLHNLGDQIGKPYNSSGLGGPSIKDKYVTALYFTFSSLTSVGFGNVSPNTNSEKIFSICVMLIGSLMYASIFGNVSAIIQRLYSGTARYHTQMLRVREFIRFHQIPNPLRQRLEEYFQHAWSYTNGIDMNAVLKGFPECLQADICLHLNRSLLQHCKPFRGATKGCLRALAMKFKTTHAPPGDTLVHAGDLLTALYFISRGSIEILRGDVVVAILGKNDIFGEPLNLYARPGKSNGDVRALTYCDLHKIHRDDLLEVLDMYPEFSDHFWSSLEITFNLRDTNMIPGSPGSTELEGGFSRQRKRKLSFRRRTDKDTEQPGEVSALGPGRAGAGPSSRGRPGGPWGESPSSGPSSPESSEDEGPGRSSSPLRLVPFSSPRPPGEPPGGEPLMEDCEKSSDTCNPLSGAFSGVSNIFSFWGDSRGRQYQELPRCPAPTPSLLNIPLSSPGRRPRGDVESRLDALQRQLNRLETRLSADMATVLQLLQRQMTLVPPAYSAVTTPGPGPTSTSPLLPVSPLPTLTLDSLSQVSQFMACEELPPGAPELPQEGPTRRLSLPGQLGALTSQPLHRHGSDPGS

Chain of KOR (P33534 whole entry): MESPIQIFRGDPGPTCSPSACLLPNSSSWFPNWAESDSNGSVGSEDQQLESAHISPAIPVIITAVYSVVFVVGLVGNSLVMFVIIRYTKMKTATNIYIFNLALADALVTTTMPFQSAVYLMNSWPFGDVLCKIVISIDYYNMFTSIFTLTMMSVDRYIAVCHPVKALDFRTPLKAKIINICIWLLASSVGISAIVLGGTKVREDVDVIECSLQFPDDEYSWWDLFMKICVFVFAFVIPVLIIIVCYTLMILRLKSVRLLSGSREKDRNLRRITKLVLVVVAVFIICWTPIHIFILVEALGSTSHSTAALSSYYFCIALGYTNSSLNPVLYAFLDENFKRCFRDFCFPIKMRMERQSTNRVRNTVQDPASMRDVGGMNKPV
Chain of CYP2C19 (P33261 whole entry): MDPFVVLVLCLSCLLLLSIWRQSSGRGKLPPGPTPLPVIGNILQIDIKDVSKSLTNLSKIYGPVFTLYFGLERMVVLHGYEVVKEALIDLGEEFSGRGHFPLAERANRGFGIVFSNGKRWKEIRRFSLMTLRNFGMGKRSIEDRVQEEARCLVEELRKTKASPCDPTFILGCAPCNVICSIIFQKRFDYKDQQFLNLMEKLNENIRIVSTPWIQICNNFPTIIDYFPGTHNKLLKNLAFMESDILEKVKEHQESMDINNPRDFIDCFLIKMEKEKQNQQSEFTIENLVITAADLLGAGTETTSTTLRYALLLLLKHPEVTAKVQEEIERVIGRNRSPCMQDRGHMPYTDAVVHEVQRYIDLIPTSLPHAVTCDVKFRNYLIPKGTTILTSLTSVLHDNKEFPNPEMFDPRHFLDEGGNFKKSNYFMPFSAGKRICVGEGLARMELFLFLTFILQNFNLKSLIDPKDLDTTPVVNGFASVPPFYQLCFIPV

O=C(N[C@H]1CC[C@@]2(O)[C@H]3Cc4ccc(O)c5c4[C@@]2(CCN3CC2CC2)[C@H]1O5)c1cccs1 [Example 1 compound 25, 17-Cyclopropylmethyl-3,14β-dihydroxy-4,5α-epoxy-6α-(2′-thienylcarboxamido)morphinan hydrochloride]
Ki (hM4): 4.9 µM
hM4 binding (hM4): 61%
withdrawal symptoms (wet-dog shakes, escape jumps, paw tremors) (morphine-pelleted mice): significantly fewer wet-dog shakes, escape jumps, and paw tremors
withdrawal symptoms at higher doses (morphine-pelleted mice): started showing wet dog shakes and jumps at a 5 mg/kg dose
Withdrawal study: wet-dog shakes, escape jumps, paw tremors at high dose (morphine-pelleted mice; high dose (5 to 20 mg/kg), compared to naloxone at 1 mg/kg, listed as NAT, hydrochloride): lower compared to naloxone at 1 mg/kg.
Solubility (solubility): Solubility: DMSO, H2O
Tail flick assay, percentage maximum possible effect (% MPE) (male Swiss Webster mice; single dose 10 mg/kg): effect (% MPE) of NAT (10 mg/kg) was 15.2
bioavailability [1]: 19%
Emax (KOR): 50.6 ± 0.95%
AMES testing (AMES testing): No toxicity shown
CYP2C19 inhibition (CYP2C19): Only CYP2C19 inhibition (~3 uM)
half-life [2]: > 1 h
half-life [3]: > 1 h
Ki (hM1): 8.4 µM
hM1 binding (hM1): 53%

O=C(N[C@H]1CC[C@@]2(O)[C@H]3Cc4ccc(O)c5c4[C@@]2(CCN3CC2CC2)[C@H]1O5)c1nccs1 [NTZ, 17-Cyclopropylmethyl-3,14β-dihydroxy-4,5α-epoxy-6α-(2′-thiazolylcarboxamido)morphinan hydrochloride]
hM4 binding (hM4): hM4 (67% at 10 uM)
Self-administration Studies Food vs Drug [4]: reduce heroin choice and increase food choice in a
side effect profiling, binding to panel [5]: No significant binding up
Withdrawal study: wet-dog shakes, escape jumps, paw tremors (morphine-pelleted mice): fewer symptoms than naloxone at the same dose.
Withdrawal study: precipitation of withdrawal syndromes (morphine-pelleted mice; up to 0.1 mg/kg): No significant precipitation of withdrawal syndromes
Solubility (solubility): Solubility: DMSO, H2O
EC50 (KOR; Tables A, B, read-out: 35S-GTP[γS]-Binding KOR Potency EC50): 0.00383 ± 0.00062 µM
Emax (KOR): 23.5 ± 2.03%
AMES testing (AMES testing): No toxicity shown
half-life [2]: > 1 h
half-life [3]: > 1 h
hM1 binding (hM1): hM1 (53% at 10 uM)

O=C(N[C@H]1CCC2(O)C3Cc4ccc(O)c5c4[C@@]2(CCN3CC2CC2)[C@H]1O5)c1ccc[nH]1 (stereo partly drawn) [Example 1 compound 1, 17-Cyclopropylmethyl-3,14β-dihydroxy-4,5α-epoxy-6a-[(2′-pyrrolyl)carboxamido]morphinan hydrochloride]
Self-administration Studies Food vs Drug [4]: reduce heroin choice and increase food choice
side effect profiling, binding to panel [5]: No significant binding up
Withdrawal study: wet-dog shakes, escape jumps, paw tremors (morphine-pelleted mice): At 1 mg/kg dose of NAY produced NO wet-dog
Tail flick assay, anti-nociceptive effect (in words) (male Swiss Webster mice; single dose, dose printed with the value): No anti-nociceptive effect up to 100 mg/kg.
bioavailability [1]: 59%
Emax (KOR): 43.4 ± 1.36%
Ki (Potassium channel hERG): 8.6 µM
hERG channel binding (Potassium channel hERG): Potassium channel hERG (52% at 10 uM),
CYP2C19 inhibition (in words) (CYP2C19; human): Only moderate at CYP2D6 and CYP2C19
half-life [2]: > 1 h
half-life [3]: > 1 h

O=C(N[C@H]1CC[C@@]2(O)[C@H]3Cc4ccc(O)c5c4[C@@]2(CCN3CC2CC2)[C@H]1O5)c1ccsc1 [Example 1 compound 31, 17-Cyclopropylmethyl-3,14β-dihydroxy-4,5α-epoxy-6α-(3′-thienylcarboxamido)morphinan hydrochloride]
hM4 binding (hM4): hM4 (65% at 10 uM)
Self-administration Studies Food vs Drug [4]: reduce heroin choice and increase food choice in a
Withdrawal study: wet-dog shakes, escape jumps, paw tremors (morphine-pelleted mice): produced significantly fewer wet-dog shakes,
withdrawal symptoms (wet-dog shakes, escape jumps, paw tremors) (morphine-pelleted mice): significantly fewer wet-dog shakes, escape jumps, and paw tremors
withdrawal symptoms at higher doses (morphine-pelleted mice): started showing wet dog shakes and jumps at a 5 mg/kg dose
Solubility (solubility): Solubility: DMSO, H2O
bioavailability [1]: 15%
hERG channel binding (Potassium channel hERG): hERG channel (58% at 10 uM)
AMES testing (AMES testing): No toxicity shown
CYP2C19 inhibition (in words) (CYP2C19): Only moderate at CYP2D6 and CYP2C19
half-life [2]: 0.733 h
half-life [3]: > 1 h
hM1 binding (hM1): hM1 (62% at 10 uM)
